Data published in patent US11896573B2, “Pharmaceutical compositions and pharmacokinetics of a gamma-hydroxybutyric acid derivative” (priority 2020, dated 2024).
Read-outs that look alike come from different tables or passages of the source.

Assay: Single ascending dose study, plasma pharmacokinetics of Compound (1) and GHB
Assay type: in vivo, human
Conditions: fasted; for Tmax / AUC(0-inf) / AUC(0-t) / Cmax / half-life: human, plasma; for Tmax: read-out: Compound (1) plasma Tmax, Median; for AUC(0-inf) / AUC(0-t) / Cmax / half-life: po
Protocol: The plasma concentrations of Compound (1) and GHB in plasma in healthy human subjects were measured using liquid chromatography tandem mass-spectroscopy and evaluated using PHOENIX™ WINNONLIN® version 8.1 (Pharsight Corporation, USA) and MICROSOFT® EXCEL® (Microsoft Corporation, USA).
All randomized subjects who received Compound (1), with available pharmacokinetic (PK) data and without relevant deviations interfering with the PK evaluations, were included. Subjects who received only placebo were excluded from the PK population. In addition, the PK population was used for the summaries and analyses of all PK data.
A randomized, double-blind, single-center, single ascending dose study was undertaken to evaluate the safety, tolerability, and pharmacokinetics of Compound (1) and GHB in healthy subjects.
Compound (1) was administered to randomized healthy subjects at doses from 0.1 g to 7.25 g as an aqueous solution of Compound (1) in water. The subjects fasted for at least 10 hours overnight with clear liquids allowed prior to dosing and the subjects were fasted for 4 hours after dosing.
Plasma samples were obtained at various times following oral administration and the plasma concentrations of Compound (1) and GHB were measured.

[1] = Cohort 7 (7.25 g) single oral dose

## CC(C)[C@H](N)C(=O)OCCCC(=O)O [Compound (1), 4-((L-valyl)oxy)butanoic acid]
[1]
  Compound (1) CL/F, Max: 433 L/h
  Compound (1) CL/F, Mean: 376 L/h
  Compound (1) CL/F, Median: 375 L/h
  Compound (1) CL/F, Min: 298 L/h
  Compound (1) plasma AUC0-inf, Max: 24300 ng·h/mL
  Compound (1) plasma AUC0-inf, Min: 16700 ng·h/mL
  Compound (1) plasma AUC0-tlast, Max: 24300 ng·h/mL
  Compound (1) plasma AUC0-tlast, Min: 16700 ng·h/mL
  Compound (1) plasma Cmax, Max: 26000 ng/mL
  Compound (1) plasma t1/2, Max: 1.28 h
  Compound (1) plasma t1/2, Min: 0.92 h
  Tmax: 0.62 h
0.1 g, Cohort 1 (0.10 g) single oral dose
  Tmax: 0.25 h
0.5 g, Cohort 2 (0.50 g) single oral dose
  Tmax: 0.75 h
1.5 g, Cohort 3 (1.50 g) single oral dose
  Tmax: 1 h
4.5 g, Cohort 5 (4.50 g) single oral dose
  Tmax: 0.75 h
0.1 g, Cohort 1 (0.10 g) single oral dose, read-out: Compound (1) plasma AUC0-inf, Mean
  AUC(0-inf): 250 ng·h/mL
0.1 g, Cohort 1 (0.10 g) single oral dose, read-out: Compound (1) plasma AUC0-inf, Median
  AUC(0-inf): 252 ng·h/mL
0.1 g, Cohort 1 (0.10 g) single oral dose, read-out: Compound (1) plasma AUC0-tlast, Mean
  AUC(0-t): 249 ng·h/mL
0.1 g, Cohort 1 (0.10 g) single oral dose, read-out: Compound (1) plasma AUC0-tlast, Median
  AUC(0-t): 250 ng·h/mL
0.1 g, Cohort 1 (0.10 g) single oral dose, read-out: Compound (1) plasma Cmax, Mean
  Cmax: 420 ng/mL
0.1 g, Cohort 1 (0.10 g) single oral dose, read-out: Compound (1) plasma Cmax, Median
  Cmax: 373 ng/mL
0.1 g, Cohort 1 (0.10 g) single oral dose, read-out: Compound (1) plasma t1/2, Mean (converted)
  half-life: 0.7 h
0.1 g, Cohort 1 (0.10 g) single oral dose, read-out: Compound (1) plasma t1/2, Median (converted)
  half-life: 0.71 h
0.5 g, Cohort 2 (0.50 g) single oral dose, read-out: Compound (1) plasma AUC0-inf, Mean
  AUC(0-inf): 1290 ng·h/mL
0.5 g, Cohort 2 (0.50 g) single oral dose, read-out: Compound (1) plasma AUC0-inf, Median
  AUC(0-inf): 1280 ng·h/mL
0.5 g, Cohort 2 (0.50 g) single oral dose, read-out: Compound (1) plasma AUC0-tlast, Mean
  AUC(0-t): 1290 ng·h/mL
0.5 g, Cohort 2 (0.50 g) single oral dose, read-out: Compound (1) plasma AUC0-tlast, Median
  AUC(0-t): 1280 ng·h/mL
0.5 g, Cohort 2 (0.50 g) single oral dose, read-out: Compound (1) plasma Cmax, Mean
  Cmax: 1540 ng/mL
0.5 g, Cohort 2 (0.50 g) single oral dose, read-out: Compound (1) plasma Cmax, Median
  Cmax: 1270 ng/mL
0.5 g, Cohort 2 (0.50 g) single oral dose, read-out: Compound (1) plasma t1/2, Mean (converted)
  half-life: 1.11 h
0.5 g, Cohort 2 (0.50 g) single oral dose, read-out: Compound (1) plasma t1/2, Median (converted)
  half-life: 1.19 h
1.5 g, Cohort 3 (1.50 g) single oral dose, read-out: Compound (1) plasma AUC0-inf, Mean
  AUC(0-inf): 2480 ng·h/mL
1.5 g, Cohort 3 (1.50 g) single oral dose, read-out: Compound (1) plasma AUC0-inf, Median
  AUC(0-inf): 2710 ng·h/mL
1.5 g, Cohort 3 (1.50 g) single oral dose, read-out: Compound (1) plasma AUC0-tlast, Mean
  AUC(0-t): 2860 ng·h/mL
1.5 g, Cohort 3 (1.50 g) single oral dose, read-out: Compound (1) plasma AUC0-tlast, Median
  AUC(0-t): 2960 ng·h/mL
1.5 g, Cohort 3 (1.50 g) single oral dose, read-out: Compound (1) plasma Cmax, Mean
  Cmax: 3360 ng/mL
1.5 g, Cohort 3 (1.50 g) single oral dose, read-out: Compound (1) plasma Cmax, Median
  Cmax: 2920 ng/mL
1.5 g, Cohort 3 (1.50 g) single oral dose, read-out: Compound (1) plasma t1/2, Mean (converted)
  half-life: 1.04 h
1.5 g, Cohort 3 (1.50 g) single oral dose, read-out: Compound (1) plasma t1/2, Median (converted)
  half-life: 1.06 h
3 g, Cohort 4 (3.00 g) single oral dose, read-out: Compound (1) plasma AUC0-inf, Mean
  AUC(0-inf): 7520 ng·h/mL
3 g, Cohort 4 (3.00 g) single oral dose, read-out: Compound (1) plasma AUC0-inf, Median
  AUC(0-inf): 7410 ng·h/mL
3 g, Cohort 4 (3.00 g) single oral dose, read-out: Compound (1) plasma AUC0-tlast, Mean
  AUC(0-t): 7510 ng·h/mL
3 g, Cohort 4 (3.00 g) single oral dose, read-out: Compound (1) plasma AUC0-tlast, Median
  AUC(0-t): 7410 ng·h/mL
3 g, Cohort 4 (3.00 g) single oral dose, read-out: Compound (1) plasma Cmax, Mean
  Cmax: 11300 ng/mL
3 g, Cohort 4 (3.00 g) single oral dose, read-out: Compound (1) plasma Cmax, Median
  Cmax: 11200 ng/mL
3 g, Cohort 4 (3.00 g) single oral dose, read-out: Compound (1) plasma t1/2, Mean (converted)
  half-life: 1.15 h
3 g, Cohort 4 (3.00 g) single oral dose, read-out: Compound (1) plasma t1/2, Median (converted)
  half-life: 1.12 h
4.5 g, Cohort 5 (4.50 g) single oral dose, read-out: Compound (1) plasma AUC0-inf, Mean
  AUC(0-inf): 11400 ng·h/mL
4.5 g, Cohort 5 (4.50 g) single oral dose, read-out: Compound (1) plasma AUC0-inf, Median
  AUC(0-inf): 11600 ng·h/mL
4.5 g, Cohort 5 (4.50 g) single oral dose, read-out: Compound (1) plasma AUC0-tlast, Mean
  AUC(0-t): 11100 ng·h/mL
4.5 g, Cohort 5 (4.50 g) single oral dose, read-out: Compound (1) plasma AUC0-tlast, Median
  AUC(0-t): 11600 ng·h/mL
4.5 g, Cohort 5 (4.50 g) single oral dose, read-out: Compound (1) plasma Cmax, Mean
  Cmax: 12800 ng/mL
4.5 g, Cohort 5 (4.50 g) single oral dose, read-out: Compound (1) plasma Cmax, Median
  Cmax: 14000 ng/mL
4.5 g, Cohort 5 (4.50 g) single oral dose, read-out: Compound (1) plasma t1/2, Mean (converted)
  half-life: 1.14 h
4.5 g, Cohort 5 (4.50 g) single oral dose, read-out: Compound (1) plasma t1/2, Median (converted)
  half-life: 1.13 h
6 g, Cohort 6 (6.00 g) single oral dose, read-out: Compound (1) plasma AUC0-inf, Mean
  AUC(0-inf): 18400 ng·h/mL
6 g, Cohort 6 (6.00 g) single oral dose, read-out: Compound (1) plasma AUC0-inf, Median
  AUC(0-inf): 18000 ng·h/mL
6 g, Cohort 6 (6.00 g) single oral dose, read-out: Compound (1) plasma AUC0-tlast, Mean
  AUC(0-t): 18400 ng·h/mL
6 g, Cohort 6 (6.00 g) single oral dose, read-out: Compound (1) plasma AUC0-tlast, Median
  AUC(0-t): 18000 ng·h/mL
6 g, Cohort 6 (6.00 g) single oral dose, read-out: Compound (1) plasma Cmax, Mean
  Cmax: 17600 ng/mL
6 g, Cohort 6 (6.00 g) single oral dose, read-out: Compound (1) plasma Cmax, Median
  Cmax: 16500 ng/mL
6 g, Cohort 6 (6.00 g) single oral dose, read-out: Compound (1) plasma t1/2, Mean (converted)
  half-life: 1.18 h
6 g, Cohort 6 (6.00 g) single oral dose, read-out: Compound (1) plasma t1/2, Median (converted)
  half-life: 1.18 h
7.25 g, Cohort 7 (7.25 g) single oral dose, read-out: Compound (1) plasma AUC0-inf, Mean
  AUC(0-inf): 19600 ng·h/mL
7.25 g, Cohort 7 (7.25 g) single oral dose, read-out: Compound (1) plasma AUC0-inf, Median
  AUC(0-inf): 19400 ng·h/mL
7.25 g, Cohort 7 (7.25 g) single oral dose, read-out: Compound (1) plasma AUC0-tlast, Mean
  AUC(0-t): 19600 ng·h/mL
7.25 g, Cohort 7 (7.25 g) single oral dose, read-out: Compound (1) plasma AUC0-tlast, Median
  AUC(0-t): 19400 ng·h/mL
7.25 g, Cohort 7 (7.25 g) single oral dose, read-out: Compound (1) plasma Cmax, Mean
  Cmax: 22100 ng/mL
7.25 g, Cohort 7 (7.25 g) single oral dose, read-out: Compound (1) plasma Cmax, Median
  Cmax: 22200 ng/mL
7.25 g, Cohort 7 (7.25 g) single oral dose, read-out: Compound (1) plasma t1/2, Mean (converted)
  half-life: 1.11 h
7.25 g, Cohort 7 (7.25 g) single oral dose, read-out: Compound (1) plasma t1/2, Median (converted)
  half-life: 1.12 h
Cohort 4 (3.00 g) single oral dose
  Tmax: 0.5 h
Cohort 6 (6.00 g) single oral dose
  Tmax: 0.5 h
